In publication PMC6433232, “Targeting mitochondria in cancer therapy could provide a basis for the selective anti-cancer activity” (PLoS ONE, 2019):
Where two headings read alike, the source gives them in different places.

Key:
[1] = Distribution coefficient LogD; format: physicochemical; conditions: pH 7.4
Excerpt: We conclude that the analysis of the octanol-water partitioning is not sufficient to establish a link between degree of lipophilicity and biological activities of the selected compounds.

[2] = molecular target: T1, human GAPDH enzyme (Homo sapiens, UniProt P04406); test: GAPDH activity assay in MIA PaCa-2 cells; format: cell-based; conditions: 2 h; for remaining activity at 30 µM: read-out: GAPDH, enzyme residual activity as compared to DMSO-treated sample; for inhibition of GAPDH: 30 μM
T1 construct: endogenous in cells; host or cells: MIA PaCa-2 cells
T1 sequence (P04406 whole entry): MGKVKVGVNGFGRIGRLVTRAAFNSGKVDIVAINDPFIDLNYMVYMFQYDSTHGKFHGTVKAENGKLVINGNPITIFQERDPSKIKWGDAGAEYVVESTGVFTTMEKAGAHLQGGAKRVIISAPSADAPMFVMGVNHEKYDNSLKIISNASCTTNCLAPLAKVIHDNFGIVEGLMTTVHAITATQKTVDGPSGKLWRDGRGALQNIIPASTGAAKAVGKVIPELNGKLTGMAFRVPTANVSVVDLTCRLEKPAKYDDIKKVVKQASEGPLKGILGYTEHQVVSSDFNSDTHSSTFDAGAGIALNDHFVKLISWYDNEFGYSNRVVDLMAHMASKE
Method: Cells were incubated for 2 h with either compounds (30 μM) or DMSO in a 6-well plate. Next, cells were collected in 200 μl of PBS and disrupted by sonication. Insoluble material was removed by centrifugation. The level of GAPDH activity was determined by GAPDH activity assay kit (BioVision).
As a final step, we evaluated the inhibitory activity of the selected compounds against human GAPDH enzyme in a cell-based assay using MIA PaCa-2 cells (Table 1). Cells were pre-incubated with compounds for 2 h at 37°C followed by cell lysis using sonication and GAPDH activity assay. The ability of compounds to inhibit GAPDH was expressed as percentage of GAPDH residual activity with respect to DMSO-treated cells. […] Similar to the GSR activity assay, only two of the most toxic compounds 31 and 32, were able to inhibit GAPDH by 95 and 97%, respectively.

[3] = tested on: Recombinant NADH/NADPH dehydrogenase; test: NADH/NADPH dehydrogenase-mediated ROS generation assay; format: biochemical; conditions: 30 μM, 4 h at 37°C; for H2O2 generation, NADH/NADPH dehydrogenase -: absence of NADH/NADPH dehydrogenase; for H2O2 generation, NADH/NADPH dehydrogenase +: presence of NADH/NADPH dehydrogenase
Method: Recombinant NADH/NADPH dehydrogenase (0.5 units/well) in a 96-well plate was incubated in 100 μl of the assay buffer (50 mM potassium phosphate buffer, pH 7.5 supplemented with 1 mM EDTA) containing NADPH (3 μM) and superoxide dismutase (SOD) (100 units/well) with and without compound (30 μM) for 4 h at 37°C. At the end of incubation, the level of hydrogen peroxide was measured using a Hydrogen Peroxide Assay kit (Cayman). Control samples were without NADH/NADPH dehydrogenase. The rate of NADH/NADPH dehydrogenase- and compound-mediated ROS production was determined by subtracting values that were obtained in the absence of NADPH dehydrogenase. One unit of NADH/NADPH dehydrogenase was defined as the amount of enzyme required to reduce 1.0 μmole cytochrome C per min/mg in the presence of menadione substrate at 37°C. One unit of SOD was defined as the amount of enzyme required to inhibit reduction of cytochrome C by 50% in a coupled system with xanthine oxidase at pH 7.8 at 25°C in a 3.0 mL reaction volume. Xanthine oxidase concentration should produce an initial ΔA550 of 0.025 ± 0.005 per min.
As the next step, we examined the capability of the selected compounds to generate ROS in the presence or absence of NADH/NADPH dehydrogenase (Table 1). ROS can be generated by NADH/NADPH-dehydrogenase via the one electron reduction of a quinone ring of 1,4-NQs. Unstable half-reduced quinones (semiquinones) transfer electrons to molecular oxygen, thus generating superoxide anion radicals (O2^●-), which are converted by SOD to hydrogen peroxide. We believe that our assay measuring compound’s ability to generate H2O2 in the presence or absence of NADH/NADPH dehydrogenase more closely resembles conditions inside the cell than the assay designed to measure compound’s redox potential values. […] To determine the ability of compounds to induce ROS, compounds were incubated for 4 h at 37°C with and without NADH/NADPH-dehydrogenase in the presence of NADPH as an electron donor and SOD to convert generated superoxide radicals into hydrogen peroxide. At the end of incubation, 10-acetyl-3,7-dihydroxyphenoxazine (ADHP) and horseradish peroxidase (HRP) were added to the reaction and the level of HRP-mediated formation of the fluorogenic product, resorufin, was measured on a plate reader. ROS production was detected in reactions with either the toxic or non-toxic compounds.

[4] = tested on: human primary hepatocytes; conditions: for EC50: read-out: EC50, μM Hepatocytes ATO, in the presence of ATO (5 μM), SD does not exceed 10%
Excerpt: We selected hepatocytes as normal cells because hepatocytes are mediate toxicity to multiple drugs and are used as a standard to assess toxicity of drugs in vitro [28]. […] For comparison with the standard of care, doxorubicin was also included in this analysis.

[5] = octanol/water, read-out: LogD, pH = 7.4

SMILES | logD [1, 5] | remaining activity at 30 µM [2] | H2O2 generation, NADH/NADPH dehydrogenase - [3] | H2O2 generation, NADH/NADPH dehydrogenase + [3] | logD [1] | toxicity against normal cells ([4]; hepatocytes, in words) | increase in toxicity to hepatocytes ([4]; versus compound 3) | inhibition of GAPDH [2] | inhibition at 30 µM [2] | reduction in toxicity to hepatocytes ([4]; versus compound 15) | EC50 [4] | decrease in toxicity to hepatocytes ([4]; versus compound 64)
NC1=C(Cl)C(=O)c2ccccc2C1=O [compound 1, 2-chloro-3-amino-1,4-NQ] | 2.01 | 100% | 4.1 µM | 7.6 µM | – | – | – | – | – | – | – | –
CCNC1=C(Cl)C(=O)c2ccccc2C1=O [compound 3] | 1.01 | 100% | 3.9 µM | 6.3 µM | – | – | – | – | – | – | – | –
CCCCCCCNC1=C(Cl)C(=O)c2ccccc2C1=O [compound 8] | 0.17 | 100% | 2.0 µM | 2.8 µM | – | – | – | – | – | – | – | –
CC(C)(C)NC1=C(Cl)C(=O)c2ccccc2C1=O [compound 13] | 0.52 | 100% | 2.7 µM | 4.3 µM | – | – | – | – | – | – | – | –
CC1CN1C1=C(Cl)C(=O)c2ccccc2C1=O (stereo not drawn) [compound 16] | – | 100% | 2.1 µM | 3.8 µM | 0.7 | completely non-toxic against normal cells | – | – | – | – | – | –
COCCNC1=C(Cl)C(=O)c2ccccc2C1=O [compound 21] | 0 | 100% | 6.5 µM | 6.4 µM | – | – | approximately 3 fold | – | – | – | – | –
CCCCOCCCNC1=C(Cl)C(=O)c2ccccc2C1=O [compound 26] | 0 | 94% | 5.9 µM | 3.8 µM | – | – | – | – | – | – | – | –
CCCC(=O)NC1=C(Cl)C(=O)c2ccccc2C1=O [compound 31] | 2.03 | 5% | 5.7 µM | 9.0 µM | – | – | – | almost completely inhibited GAPDH | 95% | – | – | –
CCCCC(=O)NC1=C(Cl)C(=O)c2ccccc2C1=O [compound 32] | 2.79 | 3% | 6.3 µM | 10.6 µM | – | – | – | almost completely inhibited GAPDH | 97% | – | – | –
O=C1C(Cl)=C(NCCc2ccccc2)C(=O)c2ccccc21 [compound 36] | 0 | 97% | 7.0 µM | 6.3 µM | – | – | – | – | – | – | – | –
O=C1C(Cl)=C(Nc2nccs2)C(=O)c2ccccc21 [compound 38] | 0.1 | 100% | 1.9 µM | 2.7 µM | – | – | – | – | – | – | – | –
O=C1C(Cl)=C(Nc2ccccc2)C(=O)c2ccccc21 [compound 39] | 0.13 | 93% | 1.6 µM | 2.8 µM | – | – | – | – | – | – | – | –
Cc1ccccc1NC1=C(Cl)C(=O)c2ccccc2C1=O [compound 40] | 0 | 88% | 5.0 µM | 2.9 µM | – | – | – | – | – | – | – | –
COC1=C(N(C)C)C(=O)c2ccccc2C1=O [compound 53] | 0 | 95% | 1.5 µM | 2.5 µM | – | – | – | – | – | – | – | –
COC1=C(N2CC2)C(=O)c2ccccc2C1=O [compound 54] | – | 73% | 2.4 µM | 3.9 µM | 0.31 | – | – | – | – | – | – | –
CC1=C(N2CC2)C(=O)c2ccccc2C1=O [compound 55] | – | 100% | 2.1 µM | 3.3 µM | 0.12 | – | – | – | – | more than 10 fold | – | –
O=C1C=C(SCCO)C(=O)c2ccccc21 [compound 60] | 2.99 | 88% | 6.9 µM | 12.7 µM | – | – | – | – | – | – | 1.7 µM | –
CCNC1=CC(=O)c2ncccc2C1=O [compound 66] | 2.87 | 93% | 5.4 µM | 10.3 µM | – | – | – | – | – | – | > 90 µM | –
O=C1C(Nc2ccccc2)=CC(=O)c2ncccc21 [compound 67, reference compound] | 3.45 | 76% | 5.5 µM | 11.9 µM | – | – | – | – | – | – | 19.4 µM | 3 fold
